The results in this text go back to ChEMBL document CHEMBL4602644, “Synthesis of PJOV56, a new quinoxalinyl-hydrazone derivative able to induce autophagy and apoptosis in colorectal cancer cells, and related compounds” (Bioorg Med Chem Lett, 2020).

pIC50: −log10 of the molar value. Active and inactive are the calls of the source. The rule behind the calls is not given here.

The pIC50 is −log10 of the IC50, conventionally taken in molar units.

One experiment concerns HL-60. As to the kind of experiment: Cytotoxicity against human HL60 cells assessed as cell growth inhibition at 5 ug/ml measured after 72 hrs by MTT assay relative to control. It counts as functional. As to conditions: HL-60, 72 h, read-out: GI.
Experiment [1] concerns HCT-116. The experiment in a line: Cytotoxicity against human HCT116 cells assessed as cell growth inhibition at 5 ug/ml measured after 72 hrs by MTT assay relative to control. Type of experiment: functional. As to conditions: HCT-116, 72 h, read-out: GI. On the technique in general: Formazan colour is commonly taken as a measure of viable cells.
The next experiment relates to OVCAR-8. As to the kind of experiment: Cytotoxicity against human OVCAR8 cells assessed as cell growth inhibition at 5 ug/ml measured after 72 hrs by MTT assay relative to control. The following applies: OVCAR-8, 72 h, read-out: GI. Type of experiment: functional.
Experiment [2] relates to HCT-116. As to the kind of experiment: Cell cycle arrest in human HCT116 cells assessed as accumulation at G0/G1 phase at 0.1 uM measured after 48 hrs by propidium iodide staining based flow cytometry (reference value: 41.67 %). Type of experiment: functional. On the technique in general: Flow cytometry measures light scatter and fluorescence of single cells or particles in a stream.

Experiment [3] has as its system HCT-116. The experiment in a line: Cell cycle arrest in human HCT116 cells assessed as accumulation at S phase at 0.1 uM measured after 48 hrs by propidium iodide staining based flow cytometry (reference value: 33.29 %). Type of experiment: functional.
Experiment [4] relates to HCT-116. As to the kind of experiment: Cell cycle arrest in human HCT116 cells assessed as accumulation at G2/M phase at 0.1 uM measured after 48 hrs by propidium iodide staining based flow cytometry (reference value: 24.98 %). Type of experiment: functional.
The next experiment relates to SF-295. The experiment in a line: Cytotoxicity against human SF295 cells assessed as reduction in cell viability measured after 72 hrs by MTT assay. Type of experiment: functional, cell-based. As to conditions: SF-295, 72 h.
The test system of a further experiment is L929. As to the kind of experiment: Cytotoxicity against mouse L929 cells assessed as reduction in cell viability measured after 72 hrs by MTT assay. Type of experiment: cell-based. As to conditions: L929, 72 h.
In experiment [5] the test system is HCT-116. The experiment in a line: Induction of morphological changes in human HCT116 cells assessed as bleb formation at 0.2 uM measured after 48 hrs by propidium iodide staining based flow cytometry. Type of experiment: functional, cell-based.
For experiment [6], the system named is HCT-116. As to the kind of experiment: Induction of morphological changes in human HCT116 cells assessed as cell pyknosis at 0.2 uM measured after 48 hrs by propidium iodide staining based flow cytometry. Type of experiment: functional.
Experiment [7] relates to HCT-116. The experiment in a line: Induction of DNA fragmentation in human HCT116 cells at 0.2 uM measured after 48 hrs by propidium iodide staining based flow cytometry relative to control. Type of experiment: functional.
In experiment [8] the test system is HCT-116. The experiment in a line: Cell cycle arrest in human HCT116 cells assessed as accumulation at G0/G1 phase at 0.2 uM measured after 48 hrs by propidium iodide staining based flow cytometry (reference value: 41.67 %). It counts as functional.
Experiment [9] has as its system HCT-116. The experiment in a line: Cell cycle arrest in human HCT116 cells assessed as accumulation at S phase at 0.2 uM measured after 48 hrs by propidium iodide staining based flow cytometry (reference value: 33.29 %). Type of experiment: functional.
The subject of experiment [10] is HCT-116. As to the kind of experiment: Cell cycle arrest in human HCT116 cells assessed as accumulation at G2/M phase at 0.2 uM measured after 48 hrs by propidium iodide staining based flow cytometry (reference value: 24.98 %). It counts as functional.

On to `C(=N\Nc1cnc2ccccc2n1)/c1cccs1`, for which the inhibition of growth at 5 µg/mL amounted to 19.7% in the experiment with HL-60, 21% with HCT-116 [1] and 0% in the experiment on OVCAR-8.
The matching figures for `O=[N+]([O-])c1ccc(/C=N/Nc2cnc3ccccc3n2)o1`: 12.2%, 27.1% and 3.95%.
For `C(=N\Nc1cnc2ccccc2n1)/c1ccc[nH]1`, in that order: 96.3%, 54.3% and 52.3%.
`CC(=O)O[C@H]1C(=O)[C@@]2(C)[C@H]([C@H](OC(=O)c3ccccc3)[C@]3(O)C[C@H](OC(=O)[C@H](O)[C@@H](NC(=O)c4ccccc4)c4ccccc4)C(C)=C1C3(C)C)[C@]1(OC(C)=O)CO[C@@H]1C[C@@H]2O` [PACLITAXEL]: the Activity amounted to 13.83% with HCT-116 [2], 25.09% with HCT-116 [3] and 61.69% with HCT-116 [4].
On to `C(=N\Nc1cnc2ccccc2n1)/c1cnc[nH]1`, for which the inhibition of growth at 5 µg/mL with HL-60 worked out at 98.8%; with HCT-116 [1], 77.2%; with OVCAR-8 it was 57.4%.
For `C(=N\Nc1cnc2ccccc2n1)/c1cccnc1`, in that order: 0%, 18.8% and 10.2%.
The matching figures for `C(=N\Nc1cnc2ccccc2n1)/c1ccncc1`: 0%, 33.7% and 14.9%.
The matching figures for `C(=N\Nc1cnc2ccccc2n1)/c1ccco1`: 0%, 9.01% and 3.56%.
For the compound `COc1cccc2c1C(=O)c1c(O)c3c(c(O)c1C2=O)C[C@@](O)(C(=O)CO)C[C@@H]3O[C@H]1C[C@H](N)[C@H](O)[C@H](C)O1` [DOXORUBICIN], the pIC50 in the experiment on SF-295 was 6.60; in the experiment on L929, 6.18. In addition, the result in the experiment on HCT-116 [5] and in the experiment with HCT-116 [6] was Active. In addition, the Activity with HCT-116 [7] is on record as 6.02%; in the experiment with HCT-116 [8], 16.48%; with HCT-116 [9], 22.72%; with HCT-116 [10], 60.53%.
For the compound `O=[N+]([O-])c1ccc(/C=N/Nc2cnc3ccccc3n2)s1`, the inhibition of growth at 5 µg/mL with HL-60 was found to be 0%; in the experiment with HCT-116 [1], 0.03%; with OVCAR-8, 0%.
